Laboratory results taken from patent US20070231258A1, “Peptide conjugates” (KARYON CTT LTD., priority 2006, published 2007).
*1 amine or outer side, *2 acyl side, *3 side chain or, on linkers, in order; H or OH if unused. Bridges are numbered along the chain shown (N, C = ends). Primed or numbered codes have the meaning given here. [ ]: non-standard residue; d: D form. DTPA′ = diethylenetriaminepentaacetic acid chelator; NHCH2CH2SCH2CO = O=C(CSCCN[*:1])[*:2]; Cysteamide = C(CS[*:3])N[*:1]; AEEEA = NCCOCCOCCOCC(=O)O; AABz = not defined here

Key:
HCT-15 = test: Cell binding assay of immobilized peptide conjugate (MTT detection); format: cell-based, human; settings: HCT-15 cells, wells coated at 30 μg/ml, 30 min 37° C.
Experimental: The human colorectal cancer HCT-15 cell line (ATCC: CCL-225), called herein also “HCT-15”, was cultured in RPMI 1640 medium with 2 mM L-glutamine adjusted to contain 1.5 g/L sodium bicarbonate, 4.5 g/L glucose, 10 mM HEPES, and 1.0 mM sodium pyruvate, 1% penicillin/streptomycin, 10% fetal bovine serum.
(§1) Preparation of plates for the assays. Wells of Reacti-Bind Maleimide activated clear strip plate (Pierce, Prod#. 15150) were coated with a peptide conjugate a*YGFVWGEE*-(Teg-E)2-EAT, Compound MJ013 prepared in Example 3, at a concentration of 30 μg/ml. The incubation was carried out overnight at 20° C. The binding buffer containing unbound peptide was re-moved from the wells.
(§2) The wells were blocked with blocking buffer (0.5% BSA, 0.05% Tween20 in phosphate buffer saline (PBS). PBS was prepared as follows: 40 g of NaCl, 1 g of KCl, 7 g of Na2HPO4×2H2O and 1 g of KH2PO4 were dissolved in […] of deionized H2O). Blank wells as controls were prepared by treating empty wells with blocking buffer. […]
(§3) Cell binding assay: 75000 cells in volume of 150 μl of medium were added into coated wells and were incubated for 30 min at 37° C. […] After formazan was solubilized by 10% SDS-0,01 M HCl, it was quantified with an ELISA spectrometer (ThermoLabsystems Multiscan EX) at 560 nm. […] The following day the absorbance of plate was measured at 560 nm with an ELISA-reader (ThermoLab-systems, Multiskan EX).

HCT-15-LM1 = test: as above; format: cell-based, human; settings: HCT-15-LM1 cells, wells coated at 30 μg/ml, 30 min 37° C.
From the text: The colorectal cancer cell line HCT-15-LM1 was developed as follows. The cell culture was started with cancer cells from lung metastases which had developed after injection of human colorectal cancer HCT-15 cells into the bloodstream of a mouse. The inoculation procedure was then repeated with HCT-15-LM1 cells leading to the establishment of another metastatic cell line, HCT-15-LM2.
as §1
The wells were blocked with blocking buffer (0.5% BSA, 0.05% Tween20 in phosphate buffer saline (PBS). PBS was prepared as follows: 40 g of NaCl, 1 g of KCl, 7 g of Na2HPO4×2H2O and 1 g of KH2PO4 were dissolved in 1000 ml of deionized H2O). […]
as §3

HSC-3 = test: as above; format: cell-based, human; settings: HSC-3 cells, wells coated at 30 μg/ml, 30 min 37° C.
Experimental: The human oral squamous cell carcinoma line HSC-3, called herein “HSC-3” (JCRB Cell Bank 0623, National Institute of Health Sciences, Japan) was cultivated in 1:1 DMEM and Ham's F 12 medium containing 10% FBS 1% penicillin/streptomycin, L-glutamate and sodium pyruvate and 0.4 ng/ml hydrocortisone.
as §1, §2, §3

C8161T = test: as above; format: cell-based, human; settings: C8161T cells, wells coated at 30 μg/ml, 30 min 37° C.
Experimental: The human melanoma cell line C8161 has been described previously by Welch et al. in Int. J. Cancer, 1991, 47: 227-237. A more metastatic cell line C8161T, called herein also “C8161T”, was developed by culturing cells from a subcutaneous melanoma tumor developed after inoculation of C8161 melanoma cells on the flank of a nude mouse. The cell line was cultured in DMEM medium adjusted to contain 2 mM L-glutamine, 1% penicillin/streptomycin, and 10% fetal bovine serum.
as §1, with “wells. […]” for “wells.”
as §3

NIH3T3 = test: as above; format: cell-based, mouse; settings: control cell line NIH3T3, wells coated at 30 μg/ml, 30 min 37° C.
Experimental: The mouse fibroblast line NIH3T3, called herein also “NIH3T3”, has been described previously by Koga et al. in Gann, 1979, 70: 585-591. The cell line was cultured in DMEM medium adjusted to contain 2 mM L-glutamine, 1% penicillin/streptomycin, and 10% fetal bovine serum.
as §1, §2, §3

SVEC4-10 = test: as above; format: cell-based, mouse; settings: control cell line SVEC4-10, wells coated at 30 μg/ml, 30 min 37° C.
Experimental: The mouse vascular endothelial cell line SVEC4-10, called herein also “SVEC4-10”, has been described previously by O'Connell et al. in J. Immunol., 1990, 144: 521-525. The cell line was cultured in DMEM medium adjusted to contain 2 mM L-glutamine, 1% penicillin/streptomycin, and 10% fetal bovine serum.
as §1, §2, §3

HCT-15 tumors = test: Biodistribution of cystine- and lactam-bridged conjugates (Eu content) in HCT-15 tumor-bearing mice; format: in vivo, athymic-nu nude mice; settings: 4 nmol MJ018 vs 16 nmol MJ069 i.v., 15 min circulation
Experimental: The biodistribution of the targeting agents MJ018 (lactam-bridged; described in Example 4) and MJ069 (cystine-bridged; described below) comprising functional peptide YGFVWGE was compared in mice carrying primary tumors of HTC-15, a human colorectal cancer cell line.
For production of experimental tumors, 22.5 million (for MJ018), and 1 million (for MJ069) HCT-15 cells were injected subcutaneously into both flanks of athymic-nu nude mice (Harlan Laboratories). The human colorectal cancer HCT-15 cell line (ATCC: CCL-225), called herein also “HCT-15”, was cultured in RPMI 1640 medium with 2 mM L-glutamine adjusted to contain 1.5 g/L sodium bicarbonate, 4.5 g/L glucose, 10 mM HEPES, and 1.0 mM sodium pyruvate, 1% penicillin/streptomycin, 10% fetal bovine serum.
Tumors were harvested when they had reached a minimum weight of 0.1 g. […]
For determination of the Eu content of the tumors and control or gans, 0.05-0.2 g of tissue was transferred into lysis buffer (20 mM Tris-HCl, 150 mM NaCl, 1% Nonident P40, pH 7.5) and homogenised. The Eu-content was determined from tissue lysates prepared into Enhancement solution (Perkin Elmer Wallac Ltd., Turku, Finland) and transferred to DELFIA Micro titration strip plates (Perkin Elmer Wallac Ltd., Turku, Finland). Time-resolved fluorescence was measured after incubation with a Wallac 1420 VICTOR3™ V plate reader using a D615 nm filter.

[1] = Plasma stability of the peptide conjugates in human blood plasma/PBS (HPLC)
Experimental: The peptide conjugates (10-20 μg) was added to a human blood plasma/PBS mixture (1:1) in a total volume of 500 μl and incubated at 37° C. After incubation 100 μl per time point (0 and 240 min) was transferred to YM-10 (Microcon, cut-off 10000 MW; manufacturer Millipore), centrifuged (10000 RPM) 15 min at 4° C. 50 μl of the spin-through material was analyzed by HPLC.
HPLC: Waters 626 pump, 600S controller, Waters 996 photo diode array detector. Column: C18, 300 Å, 5 μm, 2.1×250 mm. Eluents for the non-conjugated functional peptides: A 0.1% TFA, B 0.075% TFA/100% ACN. Gradient: 0-100% B in 60 min. Flow: 180 μl/min. Loop: 50 μl.
Eluents for the functional peptide conjugates: Eluent A: 0.05 M ammonium acetate; B: 50% 0.05 M ammonium acetate/50% ACN. Gradient: 0-100% B in 60 min. Flow: 180 μl/min. Loop: 50 μl. One-minute fractions were collected and analyzed with MALDI-TOF.
Peptide mass: Bruker Ultraflex MALDI-TOF, N2-laser 337 nm, matrix saturated solution of α-cyano-4-hydroxycinnamic acid, reflector mode.

Substance | cell binding to immobilized peptide conjugate (absorbance at 560 nm) (HCT-15) | cell binding to immobilized peptide conjugate (absorbance at 560 nm) (HCT-15-LM1) | cell binding to immobilized peptide conjugate (absorbance at 560 nm) (HSC-3) | cell binding to immobilized peptide conjugate (absorbance at 560 nm) (C8161T) | cell binding to immobilized peptide conjugate (absorbance at 560 nm) (NIH3T3) | cell binding to immobilized peptide conjugate (absorbance at 560 nm) (SVEC4-10) | accumulation in tumor tissue (tissue-to-muscle Eu content), lactam- vs cystine-bridged (HCT-15 tumors) | Observed compound peak heights prior to incubation ([1]; 0 h, human blood plasma/PBS 1:1, 37° C.) | Observed compound peak heights after four hours ([1]; 4 h, human blood plasma/PBS 1:1, 37° C.) | degradation during incubation in plasma ([1]; 4 h incubation in human plasma)
a*YGFVWGEE*-(Teg-E)2-EAT (YGFVWGEE[AEEEA]E[AEEEA]E-Cysteamide; lactam N-8; not fully specified (N-terminus)) [MJ013] | bind selectively | bind selectively | bind selectively | bind selectively | significantly less binding | significantly less binding |  |  |  | 
a*YGFVWGEE*-(Teg-E)2-AEM-AABz-DTPA-Eu (YGFVWGEE[AEEEA]E[AEEEA]E-{NHCH2CH2SCH2CO-AABz-DTPA′}; lactam N-8; not fully specified (N-terminus); reading uncertain; also: DTPA chelate of Eu) [MJ018] |  |  |  |  |  |  | accumulated more strongly in the tumor tissue than the cystine-bridged conjugate MJ069 | 100% | 100% | no degradation
